This passage reports IC50, inhibition and Activity results from ChEMBL document CHEMBL3351304, “Bioactive constituents from the green alga Caulerpa racemosa” (Bioorg Med Chem, 2015).

In test [1] the target is T1, Tyrosine-protein phosphatase non-receptor type 1 (Homo sapiens, UniProt P18031).
T1 sequence (P18031 whole entry): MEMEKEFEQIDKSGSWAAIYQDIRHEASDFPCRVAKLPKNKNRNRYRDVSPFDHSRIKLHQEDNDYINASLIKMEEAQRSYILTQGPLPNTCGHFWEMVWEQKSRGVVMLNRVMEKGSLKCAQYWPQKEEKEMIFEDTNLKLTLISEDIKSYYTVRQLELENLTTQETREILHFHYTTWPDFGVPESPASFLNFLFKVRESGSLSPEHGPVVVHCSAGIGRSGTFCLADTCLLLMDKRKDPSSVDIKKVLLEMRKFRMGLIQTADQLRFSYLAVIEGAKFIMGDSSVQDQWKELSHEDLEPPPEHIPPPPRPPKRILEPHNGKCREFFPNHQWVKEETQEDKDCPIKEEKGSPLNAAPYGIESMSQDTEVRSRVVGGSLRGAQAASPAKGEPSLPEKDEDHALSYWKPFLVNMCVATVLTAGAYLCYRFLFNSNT
Briefly: Inhibition of purified recombinant PTP1B catalytic domain (unknown origin) using pNPP as substrate by spectrophotometry.

The target of test [2] is T2, Tyrosine-protein phosphatase non-receptor type 2 (Homo sapiens, UniProt P17706).
T2 sequence (P17706 whole entry): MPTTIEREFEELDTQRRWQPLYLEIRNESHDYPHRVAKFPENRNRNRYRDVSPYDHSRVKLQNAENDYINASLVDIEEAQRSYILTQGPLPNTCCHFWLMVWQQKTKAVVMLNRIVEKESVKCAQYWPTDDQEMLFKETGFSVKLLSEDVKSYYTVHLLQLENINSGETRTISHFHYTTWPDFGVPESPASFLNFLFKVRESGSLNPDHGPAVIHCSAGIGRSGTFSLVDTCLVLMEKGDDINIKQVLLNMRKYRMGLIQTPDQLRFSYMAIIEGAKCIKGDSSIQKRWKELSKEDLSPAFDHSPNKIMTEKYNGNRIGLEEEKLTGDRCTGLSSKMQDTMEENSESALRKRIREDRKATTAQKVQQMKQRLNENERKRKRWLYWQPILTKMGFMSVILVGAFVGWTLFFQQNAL
Kind of test: Inhibition of TC-PTP (unknown origin) using pNPP as substrate by spectrophotometry.

Test [3] deals with T3, M-phase inducer phosphatase 2 (Homo sapiens, UniProt P30305).
T3 sequence (P30305 whole entry): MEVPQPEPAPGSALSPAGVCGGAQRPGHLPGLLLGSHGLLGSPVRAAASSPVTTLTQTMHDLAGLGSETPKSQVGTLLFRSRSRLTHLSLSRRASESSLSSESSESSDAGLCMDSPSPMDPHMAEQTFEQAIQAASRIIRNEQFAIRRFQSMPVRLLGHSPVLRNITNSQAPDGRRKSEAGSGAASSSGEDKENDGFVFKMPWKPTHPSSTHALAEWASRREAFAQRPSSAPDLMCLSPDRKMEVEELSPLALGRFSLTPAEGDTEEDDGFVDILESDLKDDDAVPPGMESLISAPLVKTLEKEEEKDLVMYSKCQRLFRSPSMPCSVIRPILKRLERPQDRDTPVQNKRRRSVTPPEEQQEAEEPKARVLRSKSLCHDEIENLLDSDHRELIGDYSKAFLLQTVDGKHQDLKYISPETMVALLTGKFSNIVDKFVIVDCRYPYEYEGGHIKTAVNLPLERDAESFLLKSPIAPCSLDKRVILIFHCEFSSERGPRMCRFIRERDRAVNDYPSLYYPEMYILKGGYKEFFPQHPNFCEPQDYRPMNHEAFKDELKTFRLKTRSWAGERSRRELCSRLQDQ
Briefly: Inhibition of CDC25B (unknown origin) using pNPP as substrate by spectrophotometry.

Test [4] has as its target T4, Tyrosine-protein phosphatase non-receptor type 6 (Homo sapiens, UniProt P29350). Briefly: Inhibition of SHP1 (unknown origin) using pNPP as substrate at 20 ug/ml by spectrophotometry.
The target in test [5] is T5, Tyrosine-protein phosphatase non-receptor type 11 (Homo sapiens) (UniProt Q06124).
T5 sequence (whole entry): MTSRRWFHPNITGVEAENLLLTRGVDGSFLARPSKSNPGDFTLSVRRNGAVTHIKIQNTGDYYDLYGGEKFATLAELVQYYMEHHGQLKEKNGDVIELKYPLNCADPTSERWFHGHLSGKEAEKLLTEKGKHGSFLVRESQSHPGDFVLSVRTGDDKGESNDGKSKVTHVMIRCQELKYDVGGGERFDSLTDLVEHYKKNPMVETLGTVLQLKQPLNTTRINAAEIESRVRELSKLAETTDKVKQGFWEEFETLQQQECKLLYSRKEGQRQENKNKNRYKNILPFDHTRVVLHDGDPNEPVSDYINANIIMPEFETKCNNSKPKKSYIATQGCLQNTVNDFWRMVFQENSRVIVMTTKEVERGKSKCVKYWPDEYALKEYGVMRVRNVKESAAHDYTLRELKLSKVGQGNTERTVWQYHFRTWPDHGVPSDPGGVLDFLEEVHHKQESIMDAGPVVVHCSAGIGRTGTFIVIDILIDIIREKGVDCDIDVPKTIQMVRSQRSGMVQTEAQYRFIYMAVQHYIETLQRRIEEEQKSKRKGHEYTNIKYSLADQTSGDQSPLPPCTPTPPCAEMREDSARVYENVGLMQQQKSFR
Kind of test: Inhibition of SHP2 (unknown origin) using pNPP as substrate at 20 ug/ml by spectrophotometry.

In test [6] the target is Receptor-type tyrosine-protein phosphatase F (Homo sapiens) (UniProt P10586). Kind of test: Inhibition of LAR (unknown origin) using pNPP as substrate at 20 ug/ml by spectrophotometry.
Receptor-type tyrosine-protein phosphatase F (Homo sapiens), sequence (P10586 whole entry): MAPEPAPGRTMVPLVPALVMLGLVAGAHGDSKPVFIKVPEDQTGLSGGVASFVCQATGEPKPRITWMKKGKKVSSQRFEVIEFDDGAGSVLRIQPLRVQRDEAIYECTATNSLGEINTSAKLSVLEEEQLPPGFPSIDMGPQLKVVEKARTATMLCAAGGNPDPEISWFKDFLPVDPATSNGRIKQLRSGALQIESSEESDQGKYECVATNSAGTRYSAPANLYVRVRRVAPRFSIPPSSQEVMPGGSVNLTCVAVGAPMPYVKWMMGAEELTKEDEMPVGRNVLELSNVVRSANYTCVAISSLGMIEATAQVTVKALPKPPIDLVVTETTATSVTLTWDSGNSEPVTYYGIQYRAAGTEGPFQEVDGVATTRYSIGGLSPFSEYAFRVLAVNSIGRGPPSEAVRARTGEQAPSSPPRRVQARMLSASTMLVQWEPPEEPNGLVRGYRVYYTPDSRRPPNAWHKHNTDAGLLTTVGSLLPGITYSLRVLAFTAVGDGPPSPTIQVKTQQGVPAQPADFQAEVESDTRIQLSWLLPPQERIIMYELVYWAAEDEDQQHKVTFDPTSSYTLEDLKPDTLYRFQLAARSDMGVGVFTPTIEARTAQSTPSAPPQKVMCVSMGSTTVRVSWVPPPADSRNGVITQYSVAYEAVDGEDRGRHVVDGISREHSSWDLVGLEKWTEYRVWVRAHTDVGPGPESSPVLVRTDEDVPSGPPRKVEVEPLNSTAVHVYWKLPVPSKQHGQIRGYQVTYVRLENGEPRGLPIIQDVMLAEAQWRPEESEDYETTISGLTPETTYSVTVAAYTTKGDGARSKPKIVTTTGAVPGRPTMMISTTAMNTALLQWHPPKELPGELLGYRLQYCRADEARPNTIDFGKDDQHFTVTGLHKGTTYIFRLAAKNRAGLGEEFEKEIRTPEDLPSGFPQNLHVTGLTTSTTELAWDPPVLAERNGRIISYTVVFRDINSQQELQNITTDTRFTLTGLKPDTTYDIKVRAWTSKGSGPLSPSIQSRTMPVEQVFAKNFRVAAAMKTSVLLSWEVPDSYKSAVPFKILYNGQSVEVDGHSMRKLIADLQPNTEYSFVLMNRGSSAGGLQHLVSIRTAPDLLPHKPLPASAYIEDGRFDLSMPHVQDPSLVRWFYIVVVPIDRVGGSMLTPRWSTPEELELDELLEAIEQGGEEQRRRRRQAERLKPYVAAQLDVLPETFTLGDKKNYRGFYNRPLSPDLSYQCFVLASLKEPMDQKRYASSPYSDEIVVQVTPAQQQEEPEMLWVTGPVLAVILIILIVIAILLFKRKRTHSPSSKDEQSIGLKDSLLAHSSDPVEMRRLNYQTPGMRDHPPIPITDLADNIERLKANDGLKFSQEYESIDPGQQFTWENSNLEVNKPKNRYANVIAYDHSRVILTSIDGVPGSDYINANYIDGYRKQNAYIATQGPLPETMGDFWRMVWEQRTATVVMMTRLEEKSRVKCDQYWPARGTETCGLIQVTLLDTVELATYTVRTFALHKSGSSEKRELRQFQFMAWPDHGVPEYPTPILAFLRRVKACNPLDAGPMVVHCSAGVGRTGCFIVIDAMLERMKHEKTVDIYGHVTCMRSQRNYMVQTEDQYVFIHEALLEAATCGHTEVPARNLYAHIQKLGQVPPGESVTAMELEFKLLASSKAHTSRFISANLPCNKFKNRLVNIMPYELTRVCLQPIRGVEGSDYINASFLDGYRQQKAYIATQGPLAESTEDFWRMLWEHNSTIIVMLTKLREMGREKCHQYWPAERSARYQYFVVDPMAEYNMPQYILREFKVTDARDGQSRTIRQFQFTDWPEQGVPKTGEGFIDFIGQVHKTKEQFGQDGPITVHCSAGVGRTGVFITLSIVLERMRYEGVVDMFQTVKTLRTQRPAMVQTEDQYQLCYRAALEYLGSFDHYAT
Test [7] in a line: Cytotoxicity against human HL60 cells by SRB assay. In kind it is functional, cell-based. The settings on record: HL-60. A general note: Sulforhodamine B stains cellular protein and so reports cell mass.
For another test, the system named is A549. Kind of test: Cytotoxicity against human A549 cells by SRB assay. In kind it is functional, cell-based.
Test [8] has as its target T6, Tyrosine-protein phosphatase non-receptor type 2 (Homo sapiens) (UniProt P17706).
T6 sequence (whole entry): T2 sequence (P17706 whole entry)
Kind of test: Inhibition of TC-PTP (unknown origin) using pNPP as substrate at 20 ug/ml by spectrophotometry.

For test [9], the target named is T7, M-phase inducer phosphatase 2 (Homo sapiens) (UniProt P30305).
T7 sequence (whole entry): T3 sequence (P30305 whole entry)
Kind of test: Inhibition of CDC25B (unknown origin) using pNPP as substrate at 20 ug/ml by spectrophotometry.

Test [10] concerns the target T4, Tyrosine-protein phosphatase non-receptor type 6.
Description: Inhibition of SHP1 (unknown origin) using pNPP as substrate by spectrophotometry
The next test concerns SH-SY5Y. Kind of test: Neuroprotective activity against amyloid beta(25 to 35)-induced cell damage in human SH-SY5Y cells assessed as increase in cell viability preincubated at 10 uM 2 hrs prior to challenge by MTT assay relative to control. In kind it is functional. In general terms: Tetrazolium assays rely on reduction of a dye to a coloured formazan, in cell work by metabolically active cells.

Where only a bound is given, the exact number is not on record here.

T4 sequence (P29350 whole entry): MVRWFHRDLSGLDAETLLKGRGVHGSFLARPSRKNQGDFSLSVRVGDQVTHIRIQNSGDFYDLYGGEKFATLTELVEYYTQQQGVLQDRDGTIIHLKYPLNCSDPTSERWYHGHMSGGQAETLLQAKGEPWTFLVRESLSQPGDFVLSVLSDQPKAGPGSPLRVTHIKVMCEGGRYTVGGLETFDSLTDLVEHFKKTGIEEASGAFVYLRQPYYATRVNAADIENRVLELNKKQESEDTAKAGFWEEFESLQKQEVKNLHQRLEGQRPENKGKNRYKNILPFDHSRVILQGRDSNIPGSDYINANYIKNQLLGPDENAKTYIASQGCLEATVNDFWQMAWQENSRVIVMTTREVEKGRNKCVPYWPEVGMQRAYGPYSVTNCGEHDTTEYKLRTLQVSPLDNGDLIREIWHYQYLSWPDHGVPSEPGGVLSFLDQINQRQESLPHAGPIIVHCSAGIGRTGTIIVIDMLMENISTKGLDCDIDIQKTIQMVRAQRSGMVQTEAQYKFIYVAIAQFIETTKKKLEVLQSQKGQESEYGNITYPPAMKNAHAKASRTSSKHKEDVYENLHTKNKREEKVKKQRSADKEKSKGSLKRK

Usually IC50 stands for the concentration that inhibits the measured activity by half. For orientation: inhibition means the share of the control response that was lost under treatment. Read a low inhibition as little suppression. Regarding `CC1=C(CCC(=O)OC/C=C(\C)CCC[C@H](C)CCC[C@H](C)CCCC(C)C)C(=O)NC1=O`, the IC50 in test [1] was 2.3 µM; in test [2], 12.6 µM; in test [3], 42.9 µM; in test [7], more than 100 µM; in the test on A549, more than 100 µM. Further, the inhibition in test [4], in test [5] and in test [6] was less than 50% throughout.

In test [3], `CC1(C)CC[C@]2(C(=O)O)CC[C@]3(C)C(=CC[C@@H]4[C@@]5(C)CC[C@H](O)C(C)(C)[C@@H]5CC[C@]43C)[C@@H]2C1` [OLEANOLIC_ACID] returned an IC50 of 0.98 µM. Further, the inhibition in test [4], in test [5] and in [6] was less than 50% throughout.

Take `CC1=C(C)C(=O)C(CC[C@](C)(O)CCC[C@H](C)CCC[C@H](C)CCCC(C)C)=C(C)C1=O`: the IC50 in test [1] was 3.85 µM; in test [2], 35.1 µM; in test [3], 23.2 µM; in [7], 45 µM; in the test on A549, 85.3 µM. Further, the inhibition in test [4], in [5] and in [6] was less than 50% each time.

`C=C[C@](O)(CC[C@@H](C)[C@H]1CC[C@H]2[C@@H]3CC=C4C[C@@H](O)CC[C@]4(C)[C@H]3CC[C@]12C)C(C)C`: the results for the IC50 (in [1]; in test [7]; in the test with A549) were 41.7 µM, more than 100 µM and more than 100 µM, respectively. Also, the inhibition in test [8], in test [9], in test [4], in test [5] and in [6] was less than 50% in each case.

As for `C/C(=C\CO)CCC[C@H](C)CCC[C@H](C)CCCC(C)C` [TRANS-PHYTOL], the IC50 is 32.6 µM in test [1], more than 100 µM in [7] and more than 100 µM in the test on A549. Also, the inhibition in test [8], in [9], in test [4], in test [5] and in [6] was less than 50% throughout.

Molecule SODIUM ORTHOVANAD yielded an IC50 in test [10] of 16.5 µM.

In the case of `CC1=CC(=O)OC1CC[C@H](C)CCC[C@H](C)CCCC(C)C` (stereo not given in full), inhibition in test [7] was half-maximal at 49.3 µM (IC50).

Turning to `CC(=O)/C(=C/C[C@@H](C)[C@H]1CC[C@H]2[C@@H]3CC=C4C[C@@H](O)CC[C@]4(C)[C@H]3CC[C@]12C)C(C)C`, the IC50 was 3.8 µM in test [1], more than 100 µM in [7] and more than 100 µM in the test with A549. In addition, the inhibition in test [8], in [9], in [4], in test [5] and in [6] was less than 50% throughout. Also, in the test on SH-SY5Y, the Activity turned out to be 11.31%.

For `CC(=O)OC/C=C(\C)CCC[C@H](C)CCC[C@H](C)CCCC(C)C`, the IC50 in [1] was 50 µM; in test [7], more than 100 µM; with A549, more than 100 µM. Moreover, the inhibition in test [8], in [9], in test [4], in test [5] and in [6] was less than 50% in each case.

Molecule `COc1cccc2c1C(=O)c1c(O)c3c(c(O)c1C2=O)C[C@@](O)(C(=O)CO)C[C@@H]3O[C@H]1C[C@H](N)[C@H](O)[C@H](C)O1` [DOXORUBICIN] returned an IC50 in test [7] of 0.123 µM.

Consider `CC(=O)[C@]1(O)C(C)=C(C)C(=O)[C@@]12CC[C@](C)(CCC[C@H](C)CCC[C@H](C)CCCC(C)C)O2`, for which the IC50 is 67.4 µM in test [7] and more than 100 µM in the test on A549.

On to `O=C(O[C@@H]1Cc2c(O)cc(O)cc2O[C@@H]1c1cc(O)c(O)c(O)c1)c1cc(O)c(O)c(O)c1` [EPIGALOCATECHIN GALLATE], for which the Activity in the test with SH-SY5Y is listed as 16.57%.

For `CC(C)C(=O)/C=C/[C@@H](C)[C@H]1CC[C@H]2[C@@H]3CC=C4C[C@@H](O)CC[C@]4(C)[C@H]3CC[C@]12C`, the figures for the IC50 (in test [1]; in test [7]; in the test on A549) were 50 µM, more than 100 µM and more than 100 µM, respectively. The inhibition in [8], in [9], in test [4], in test [5] and in test [6] was less than 50% in each case. Besides, in the test on SH-SY5Y, the Activity amounted to 15.98%.

In the case of `C=C[C@@](O)(CC[C@@H](C)[C@H]1CC[C@H]2[C@@H]3CC=C4C[C@@H](O)CC[C@]4(C)[C@H]3CC[C@]12C)C(C)C`, the IC50 in test [1] is 10.3 µM; in test [7], more than 100 µM; in the test with A549, more than 100 µM. In addition, the inhibition in [8], in test [9], in [4], in test [5] and in [6] was less than 50% throughout.

As to `CC1=C(C)C(=O)[C@@]2(CC[C@@](C)(CCC[C@H](C)CCC[C@H](C)CCCC(C)C)O2)[C@@](C)(O)C1=O`, the values for the IC50 (in test [1]; in test [7]; with A549) were 11 µM, more than 100 µM and more than 100 µM, respectively. In addition, the inhibition in test [8], in [9], in [4], in [5] and in test [6] was less than 50% in each case. The Activity in the test with SH-SY5Y is 13.85%.
